What was measured:
A2780 [1] = assay: Cytotoxicity against human A2780 cells after 72 hrs by MTT assay; type: functional, cell-based; conditions: A2780, 72 h
A549 [2] = assay: Cytotoxicity against human A549 cells after 72 hrs by MTT assay; type: functional, cell-based; conditions: A549, 72 h
A2780 [3] = assay: Antiproliferative activity against human A2780 cells at 0.005 uM after 72 hrs by MTT assay; type: functional; conditions: A2780, 72 h
A549 [4] = assay: Antiproliferative activity against human A549 cells at 0.005 uM after 72 hrs by MTT assay; type: functional; conditions: A549, 72 h

SMILES | IC50 (A2780 [1]) | IC50 (A549 [2]) | inhibition at 0.005 µM (A2780 [3]) | inhibition at 0.005 µM (A549 [4])
CN(c1nc2ccccc2s1)C1CCN(C[C@@H](O)COc2ccc(F)c(F)c2)CC1 | 14 µM | 18 µM |  | 
CN(c1nc2ccccc2s1)C1CCN(C[C@H](O)COc2ccc(F)c(F)c2)CC1 [LUBELUZOLE] | 5.7 µM | 14 µM | 4.3% | 5.2%
COc1cccc2c1C(=O)c1c(O)c3c(c(O)c1C2=O)C[C@@](O)(C(=O)CO)C[C@@H]3O[C@H]1C[C@H](N)[C@H](O)[C@H](C)O1 [DOXORUBICIN] | 0.023 µM |  |  | 
CC(=O)O[C@H]1C(=O)[C@@]2(C)[C@H]([C@H](OC(=O)c3ccccc3)[C@]3(O)C[C@H](OC(=O)[C@H](O)[C@@H](NC(=O)c4ccccc4)c4ccccc4)C(C)=C1C3(C)C)[C@]1(OC(C)=O)CO[C@@H]1C[C@@H]2O [PACLITAXEL] |  | 0.014 µM |  | 
